From patent US12643871B2, “Aryl formamide compound containing chiral sulfur oxide or salt thereof, preparation method, herbicidal composition and use thereof” (Qingdao Kingagroot Chemical Compound Co., Ltd., priority 2019, dated 2026)

Tests used:
Assay in all cases: Weeding effect in post-emergence stage
Type in all cases: in vivo
Settings in all cases: 250 g/ha; 2 leaf stage; 15 days after application; fresh weight control rate
Echinochloa crusgali = test system: Echinochloa crusgali
Summary of the method: (§1)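 Greenhouse pot-grown weeds were sprayed at the 2-leaf stage, 2 weeks after sowing, with compound in acetone/Tween 80 plus 1.5 L/ha methyl oleate EC, at 500, 250, 125, 60, 30 or 15 g/ha. Fresh-weight growth control was scored 15 days later on a 0–5 scale, mean of three repeats.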

Abutilon theophrasti = test system: Abutilon theophrasti
Summary of the method: as §1

Digitaria sanguinalis = test system: Digitaria sanguinalis
Summary of the method: as §1

Setaria viridis = test system: Setaria viridis
Summary of the method: as §1

Amaranthus retroflexus = test system: Amaranthus retroflexus
Summary of the method: as §1

For `CCC[S@@+]([O-])c1c(C(F)(F)F)ccc(C(=O)Nc2nnco2)c1F` [Compound 357], the “weeding effect in post-emergence stage, activity level (growth control rate), Echinochloa crusgali” value (shortened to “weeding effect … Echinochloa crusgali”) (Echinochloa crusgali) was 5 (Level 5: growth control rate is above 85%), the “weeding effect in post-emergence stage, activity level (growth control rate), Abutilon theophrasti” value (shortened to “weeding effect … Abutilon theophrasti”) (Abutilon theophrasti) was 5 (Level 5: growth control rate is above 85%) and the “weeding effect in post-emergence stage, activity level (growth control rate), Digitaria sanguinalis” value (shortened to “weeding effect … Digitaria sanguinalis”) (Digitaria sanguinalis) was 5 (Level 5: growth control rate is above 85%). The “weeding effect in post-emergence stage, activity level (growth control rate), Setaria viridis” value (“weeding effect … Setaria viridis” below) (Setaria viridis) was 5 (Level 5: growth control rate is above 85%) and the “weeding effect in post-emergence stage, activity level (growth control rate), Amaranthus retroflexus” value (“weeding effect … Amaranthus retroflexus” below) (Amaranthus retroflexus) was 5 (Level 5: growth control rate is above 85%).

For `CCC[S@@+]([O-])c1c(C(F)(F)F)ccc(C(=O)Nc2nnc(CC)o2)c1F` [Compound 358], the “weeding effect … Echinochloa crusgali” value (Echinochloa crusgali) was 5 (Level 5: growth control rate is above 85%), the “weeding effect … Abutilon theophrasti” value (Abutilon theophrasti) was 5 (Level 5: growth control rate is above 85%) and the “weeding effect … Digitaria sanguinalis” value (Digitaria sanguinalis) was 5 (Level 5: growth control rate is above 85%). For the same compound, the “weeding effect … Setaria viridis” value (Setaria viridis) was 5 (Level 5: growth control rate is above 85%) and the “weeding effect … Amaranthus retroflexus” value (Amaranthus retroflexus) was 5 (Level 5: growth control rate is above 85%).

For `CCC[S@@+]([O-])c1c(C(F)(F)F)ccc(C(=O)Nc2nnc(C(C)C)o2)c1F` [Compound 359], the “weeding effect … Echinochloa crusgali” value (Echinochloa crusgali) was 5 (Level 5: growth control rate is above 85%), the “weeding effect … Abutilon theophrasti” value (Abutilon theophrasti) was 5 (Level 5: growth control rate is above 85%) and the “weeding effect … Digitaria sanguinalis” value (Digitaria sanguinalis) was 5 (Level 5: growth control rate is above 85%). For the same compound, the “weeding effect … Setaria viridis” value (Setaria viridis) was 5 (Level 5: growth control rate is above 85%) and the “weeding effect … Amaranthus retroflexus” value (Amaranthus retroflexus) was 5 (Level 5: growth control rate is above 85%).

For `CC[S@@+]([O-])c1c(C(F)(F)F)ccc(C(=O)Nc2nnco2)c1OC` [Compound 423], the “weeding effect … Echinochloa crusgali” value (Echinochloa crusgali) was 5 (Level 5: growth control rate is above 85%), the “weeding effect … Abutilon theophrasti” value (Abutilon theophrasti) was 5 (Level 5: growth control rate is above 85%) and the “weeding effect … Digitaria sanguinalis” value (Digitaria sanguinalis) was 5 (Level 5: growth control rate is above 85%). The “weeding effect … Setaria viridis” value (Setaria viridis) was 5 (Level 5: growth control rate is above 85%) and the “weeding effect … Amaranthus retroflexus” value (Amaranthus retroflexus) was 5 (Level 5: growth control rate is above 85%).

With `CCc1nnc(NC(=O)c2ccc(C(F)(F)F)c([S@+]([O-])CC)c2OC)o1` [Compound 424] the “weeding effect … Echinochloa crusgali” value (Echinochloa crusgali) was 5 (Level 5: growth control rate is above 85%), the “weeding effect … Abutilon theophrasti” value (Abutilon theophrasti) was 5 (Level 5: growth control rate is above 85%) and the “weeding effect … Digitaria sanguinalis” value (Digitaria sanguinalis) was 5 (Level 5: growth control rate is above 85%). For the same compound, the “weeding effect … Setaria viridis” value (Setaria viridis) was 5 (Level 5: growth control rate is above 85%) and the “weeding effect … Amaranthus retroflexus” value (Amaranthus retroflexus) was 5 (Level 5: growth control rate is above 85%).

For `CC[S@@+]([O-])c1c(C(F)(F)F)ccc(C(=O)Nc2nnnn2C)c1OC` [Compound 445], the “weeding effect … Echinochloa crusgali” value (Echinochloa crusgali) was 5 (Level 5: growth control rate is above 85%), the “weeding effect … Abutilon theophrasti” value (Abutilon theophrasti) was 5 (Level 5: growth control rate is above 85%) and the “weeding effect … Digitaria sanguinalis” value (Digitaria sanguinalis) was 5 (Level 5: growth control rate is above 85%). The “weeding effect … Setaria viridis” value (Setaria viridis) was 5 (Level 5: growth control rate is above 85%) and the “weeding effect … Amaranthus retroflexus” value (Amaranthus retroflexus) was 5 (Level 5: growth control rate is above 85%).

With `CCn1nnnc1NC(=O)c1ccc(C(F)(F)F)c([S@+]([O-])CC)c1OC` [Compound 446] the “weeding effect … Echinochloa crusgali” value (Echinochloa crusgali) was 5 (Level 5: growth control rate is above 85%), the “weeding effect … Abutilon theophrasti” value (Abutilon theophrasti) was 5 (Level 5: growth control rate is above 85%) and the “weeding effect … Digitaria sanguinalis” value (Digitaria sanguinalis) was 5 (Level 5: growth control rate is above 85%). The “weeding effect … Setaria viridis” value (Setaria viridis) was 5 (Level 5: growth control rate is above 85%) and the “weeding effect … Amaranthus retroflexus” value (Amaranthus retroflexus) was 5 (Level 5: growth control rate is above 85%).

With `CCCn1nnnc1NC(=O)c1ccc(C(F)(F)F)c([S@+]([O-])CC)c1OC` [Compound 447] the “weeding effect … Echinochloa crusgali” value (Echinochloa crusgali) was 5 (Level 5: growth control rate is above 85%), the “weeding effect … Abutilon theophrasti” value (Abutilon theophrasti) was 5 (Level 5: growth control rate is above 85%) and the “weeding effect … Digitaria sanguinalis” value (Digitaria sanguinalis) was 5 (Level 5: growth control rate is above 85%). For the same compound, the “weeding effect … Setaria viridis” value (Setaria viridis) was 5 (Level 5: growth control rate is above 85%) and the “weeding effect … Amaranthus retroflexus” value (Amaranthus retroflexus) was 5 (Level 5: growth control rate is above 85%).

With `CCC[S@@+]([O-])c1c(C(F)(F)F)ccc(C(=O)Nc2nnc(C)o2)c1OC` [Compound 531] the “weeding effect … Echinochloa crusgali” value (Echinochloa crusgali) was 5 (Level 5: growth control rate is above 85%), the “weeding effect … Abutilon theophrasti” value (Abutilon theophrasti) was 5 (Level 5: growth control rate is above 85%) and the “weeding effect … Digitaria sanguinalis” value (Digitaria sanguinalis) was 5 (Level 5: growth control rate is above 85%). For the same compound, the “weeding effect … Setaria viridis” value (Setaria viridis) was 5 (Level 5: growth control rate is above 85%) and the “weeding effect … Amaranthus retroflexus” value (Amaranthus retroflexus) was 5 (Level 5: growth control rate is above 85%).

In the case of `CCC[S@@+]([O-])c1c(C(F)(F)F)ccc(C(=O)Nc2nnc(C)o2)c1OCC` [Compound 532], the “weeding effect … Echinochloa crusgali” value (Echinochloa crusgali) is reported as 5 (Level 5: growth control rate is above 85%), the “weeding effect … Abutilon theophrasti” value (Abutilon theophrasti) is reported as 5 (Level 5: growth control rate is above 85%) and the “weeding effect … Digitaria sanguinalis” value (Digitaria sanguinalis) is reported as 5 (Level 5: growth control rate is above 85%). For the same compound, the “weeding effect … Setaria viridis” value (Setaria viridis) was 5 (Level 5: growth control rate is above 85%) and the “weeding effect … Amaranthus retroflexus” value (Amaranthus retroflexus) was 5 (Level 5: growth control rate is above 85%).

`CCCOc1c(C(=O)Nc2nnc(C)o2)ccc(C(F)(F)F)c1[S@+]([O-])CCC` [Compound 533] was tested, and the “weeding effect … Echinochloa crusgali” value (Echinochloa crusgali) was 5 (Level 5: growth control rate is above 85%), the “weeding effect … Abutilon theophrasti” value (Abutilon theophrasti) was 5 (Level 5: growth control rate is above 85%) and the “weeding effect … Digitaria sanguinalis” value (Digitaria sanguinalis) was 5 (Level 5: growth control rate is above 85%). For the same compound, the “weeding effect … Setaria viridis” value (Setaria viridis) was 5 (Level 5: growth control rate is above 85%) and the “weeding effect … Amaranthus retroflexus” value (Amaranthus retroflexus) was 5 (Level 5: growth control rate is above 85%).

`CCC[S@@+]([O-])c1c(C(F)(F)F)ccc(C(=O)Nc2nnc(C)o2)c1OC(C)C` [Compound 534] was tested, and the “weeding effect … Echinochloa crusgali” value (Echinochloa crusgali) was 5 (Level 5: growth control rate is above 85%), the “weeding effect … Abutilon theophrasti” value (Abutilon theophrasti) was 5 (Level 5: growth control rate is above 85%) and the “weeding effect … Digitaria sanguinalis” value (Digitaria sanguinalis) was 5 (Level 5: growth control rate is above 85%). For the same compound, the “weeding effect … Setaria viridis” value (Setaria viridis) was 5 (Level 5: growth control rate is above 85%) and the “weeding effect … Amaranthus retroflexus” value (Amaranthus retroflexus) was 5 (Level 5: growth control rate is above 85%).

For `CCCCOc1c(C(=O)Nc2nnc(C)o2)ccc(C(F)(F)F)c1[S@+]([O-])CCC` [Compound 535], the “weeding effect … Echinochloa crusgali” value (Echinochloa crusgali) was 5 (Level 5: growth control rate is above 85%), the “weeding effect … Abutilon theophrasti” value (Abutilon theophrasti) was 5 (Level 5: growth control rate is above 85%) and the “weeding effect … Digitaria sanguinalis” value (Digitaria sanguinalis) was 5 (Level 5: growth control rate is above 85%). For the same compound, the “weeding effect … Setaria viridis” value (Setaria viridis) was 5 (Level 5: growth control rate is above 85%) and the “weeding effect … Amaranthus retroflexus” value (Amaranthus retroflexus) was 5 (Level 5: growth control rate is above 85%).

With `CCC[S@@+]([O-])c1c(C(F)(F)F)ccc(C(=O)Nc2nnc(C)o2)c1Cl` [Compound 543] the “weeding effect … Echinochloa crusgali” value (Echinochloa crusgali) was 5 (Level 5: growth control rate is above 85%), the “weeding effect … Abutilon theophrasti” value (Abutilon theophrasti) was 5 (Level 5: growth control rate is above 85%) and the “weeding effect … Digitaria sanguinalis” value (Digitaria sanguinalis) was 5 (Level 5: growth control rate is above 85%). For the same compound, the “weeding effect … Setaria viridis” value (Setaria viridis) was 5 (Level 5: growth control rate is above 85%) and the “weeding effect … Amaranthus retroflexus” value (Amaranthus retroflexus) was 5 (Level 5: growth control rate is above 85%).
